Measurements taken from ChEMBL document CHEMBL5634160, “Synthesis, biological evaluation and action mechanism of 7H-[1,2,4] triazolo [3,4-b] [1,3,4] thiadiazine-phenylhydrazone derivatives as α-glucosidase inhibitors” (Eur J Med Chem, 2023).

What was measured:
Alpha-glucosidase [1] = target: T1, Alpha-glucosidase (Saccharomyces cerevisiae S288c, UniProt P53341+P38158+P07265); experiment: Inhibition of Saccharomyces cerevisiae alpha-glucosidase using nitrophenol-alpha-D-glucopyranoside (pNPG) as substrate incubated for 15 mins; assay type: protein assay
[2] = target: T2, Alpha-glucosidase (Saccharomyces cerevisiae S288c) (UniProt P53341+P38158+P07265); experiment: Binding affinity to Saccharomyces cerevisiae alpha-glucosidase assessed as decrease in protein stability by measuring beta-turn structure at 15 uM measured after 5 mins by CD spectrum assay (reference value: 6.80%); design: scale not given: the % may be the effect or the level left
CYP2C9 = experiment: Inhibition of CYP2C9 in rat liver microsomes assessed as remaining activity at 100 uM measured after 30 mins by LC-MS/MS analysis; assay type: ADME, Microsome; details: read-out: Activity
[3] = target: T2, Alpha-glucosidase (Saccharomyces cerevisiae S288c); experiment: Binding affinity to Saccharomyces cerevisiae alpha-glucosidase assessed as decrease in protein stability by measuring alpha-helix structure at 15 uM measured after 5 mins by CD spectrum assay (reference value: 84.50%); design: scale not given: the % may be the effect or the level left
[4] = target: T2, Alpha-glucosidase (Saccharomyces cerevisiae S288c); experiment: Binding affinity to Saccharomyces cerevisiae alpha-glucosidase assessed as decrease in protein stability by measuring beta-sheet structure at 5 uM measured after 5 mins by CD spectrum assay (reference value: 4.30%); design: scale not given: the % may be the effect or the level left
[5] = target: T2, Alpha-glucosidase (Saccharomyces cerevisiae S288c); experiment: Binding affinity to Saccharomyces cerevisiae alpha-glucosidase assessed as quenching constant value (Ka) by fluorescence quenching study; assay type: protein assay
[6] = target: T2, Alpha-glucosidase (Saccharomyces cerevisiae S288c); experiment: Binding affinity to Saccharomyces cerevisiae alpha-glucosidase assessed as decrease in protein stability by measuring beta-turn structure at 20 uM measured after 5 mins by CD spectrum assay (reference value: 6.80%); design: scale not given: the % may be the effect or the level left
[7] = target: T2, Alpha-glucosidase (Saccharomyces cerevisiae S288c); experiment: Binding affinity to Saccharomyces cerevisiae alpha-glucosidase assessed as decrease in fluorescence intensity peak 1 by 3D spectra assay; assay type: protein assay; design: scale not given: the % may be the effect or the level left
Alpha-glucosidase [8] = target: T1, Alpha-glucosidase; experiment: Non-competitive inhibition of Saccharomyces cerevisiae alpha-glucosidase using nitrophenol-alpha-D-glucopyranoside (pNPG) as substrate at 24 to 48 uM measured after 15 mins by Lineweaver-Burk plot analysis; assay type: protein assay
[9] = Cytotoxicity against human HEK293 cells assessed as cell viability at 50 uM measured after 24 hrs by MTT assay relative to control; assay type: toxicity, cell-based; details: read-out: Activity
[10] = target: T2, Alpha-glucosidase (Saccharomyces cerevisiae S288c); experiment: Binding affinity to Saccharomyces cerevisiae alpha-glucosidase assessed as decrease in fluorescence intensity peak 2 by 3D spectra assay; assay type: protein assay; design: scale not given: the % may be the effect or the level left
[11] = target: T2, Alpha-glucosidase (Saccharomyces cerevisiae S288c); experiment: Binding affinity to Saccharomyces cerevisiae alpha-glucosidase assessed as decrease in protein stability by measuring beta-turn structure at 5 uM measured after 5 mins by CD spectrum assay (reference value: 6.80%); design: scale not given: the % may be the effect or the level left
Mus musculus [12] = experiment: Anti-diabetic activity against 16 hrs fasted male Kunming mouse assessed as AUC of postprandial blood glucose at 20 mg/kg, IG after 30 mins […] of sucrose administered and measured upto 2 hrs by sucrose tolerance test (reference value: 810.40 +/- 75.53 mM.min); assay type: functional, organism-based
[13] = target: T2, Alpha-glucosidase (Saccharomyces cerevisiae S288c); experiment: Binding affinity to Saccharomyces cerevisiae alpha-glucosidase assessed as decrease in protein stability by measuring alpha-helix structure at 10 uM measured after 5 mins by CD spectrum assay (reference value: 84.50%); design: scale not given: the % may be the effect or the level left
[14] = Cytotoxicity against human HEK293 cells assessed as cell viability at 150 uM measured after 24 hrs by MTT assay relative to control; assay type: toxicity, cell-based; details: read-out: Activity
CYP2D6 = experiment: Inhibition of CYP2D6 in rat liver microsomes assessed as remaining activity at 100 uM measured after 30 mins by LC-MS/MS analysis; assay type: ADME, Microsome; details: read-out: Activity
CYP2C19 = experiment: Inhibition of CYP2C19 in rat liver microsomes assessed as remaining activity at 100 uM measured after 30 mins by LC-MS/MS analysis; assay type: ADME, Microsome; details: read-out: Activity
[15] = target: T2, Alpha-glucosidase (Saccharomyces cerevisiae S288c); experiment: Binding affinity to Saccharomyces cerevisiae alpha-glucosidase assessed as decrease in protein stability by measuring alpha-helix structure at 20 uM measured after 5 mins by CD spectrum assay (reference value: 84.50%); design: scale not given: the % may be the effect or the level left
CYP1A2 = target: T3, CYP1A2 (Rattus norvegicus, UniProt P04799); experiment: Inhibition of CYP1A2 in rat liver microsomes assessed as remaining activity at 100 uM measured after 30 mins by LC-MS/MS analysis; assay type: ADME, Microsome; details: read-out: Activity
T3 sequence (P04799 whole entry): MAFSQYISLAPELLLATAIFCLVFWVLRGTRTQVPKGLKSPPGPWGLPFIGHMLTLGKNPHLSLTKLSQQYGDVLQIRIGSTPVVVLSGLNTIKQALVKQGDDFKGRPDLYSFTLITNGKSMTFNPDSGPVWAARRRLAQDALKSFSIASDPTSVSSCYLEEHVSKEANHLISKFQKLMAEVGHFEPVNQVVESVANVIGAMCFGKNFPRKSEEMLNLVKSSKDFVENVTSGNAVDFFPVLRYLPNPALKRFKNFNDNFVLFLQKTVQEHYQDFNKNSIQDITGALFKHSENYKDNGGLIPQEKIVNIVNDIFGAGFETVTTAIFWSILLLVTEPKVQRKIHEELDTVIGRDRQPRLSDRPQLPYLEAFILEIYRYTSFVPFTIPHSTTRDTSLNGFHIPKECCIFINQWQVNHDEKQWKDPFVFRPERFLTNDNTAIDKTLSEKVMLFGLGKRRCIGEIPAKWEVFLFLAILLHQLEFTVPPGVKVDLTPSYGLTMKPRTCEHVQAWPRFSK

[16] = target: T2, Alpha-glucosidase (Saccharomyces cerevisiae S288c); experiment: Binding affinity to Saccharomyces cerevisiae alpha-glucosidase assessed as decrease in protein stability by measuring random coil structure at 20 uM measured after 5 mins by CD spectrum assay (reference value: 6.20%); design: scale not given: the % may be the effect or the level left
[17] = Cytotoxicity against human HEK293 cells assessed as cell viability at 200 uM measured after 24 hrs by MTT assay relative to control; assay type: toxicity, cell-based; details: read-out: Activity
CYP2B6 = experiment: Inhibition of CYP2B6 in rat liver microsomes assessed as remaining activity at 100 uM measured after 30 mins by LC-MS/MS analysis; assay type: ADME, Microsome; details: read-out: Activity
[18] = target: T2, Alpha-glucosidase (Saccharomyces cerevisiae S288c); experiment: Binding affinity to Saccharomyces cerevisiae alpha-glucosidase assessed as decrease in protein stability by measuring beta-turn structure at 10 uM measured after 5 mins by CD spectrum assay (reference value: 6.80%); design: scale not given: the % may be the effect or the level left
[19] = target: T2, Alpha-glucosidase (Saccharomyces cerevisiae S288c); experiment: Binding affinity to Saccharomyces cerevisiae alpha-glucosidase assessed as quenching constant value (Kq) by fluorescence quenching study; assay type: protein assay
[20] = target: T2, Alpha-glucosidase (Saccharomyces cerevisiae S288c); experiment: Binding affinity to Saccharomyces cerevisiae alpha-glucosidase assessed as decrease in fluorescence intensity at 0 to 45 uM by fluorescence quenching study relative to control; assay type: protein assay; design: scale not given: the % may be the effect or the level left; details: dose 0-45 µM
[21] = target: T2, Alpha-glucosidase (Saccharomyces cerevisiae S288c); experiment: Binding affinity to Saccharomyces cerevisiae alpha-glucosidase assessed as decrease in protein stability by measuring alpha-helix structure at 5 uM measured after 5 mins by CD spectrum assay (reference value: 84.50%); design: scale not given: the % may be the effect or the level left
[22] = target: T2, Alpha-glucosidase (Saccharomyces cerevisiae S288c); experiment: Binding affinity to Saccharomyces cerevisiae alpha-glucosidase assessed as decrease in protein stability by measuring beta-sheet structure at 10 uM measured after 5 mins by CD spectrum assay (reference value: 4.30%); design: scale not given: the % may be the effect or the level left
[23] = Cytotoxicity against human HEK293 cells assessed as cell viability at 100 uM measured after 24 hrs by MTT assay relative to control; assay type: toxicity, cell-based; details: read-out: Activity
[24] = target: T2, Alpha-glucosidase (Saccharomyces cerevisiae S288c); experiment: Binding affinity to Saccharomyces cerevisiae alpha-glucosidase assessed as decrease in protein stability by measuring beta-sheet structure at 7.5 uM measured after 5 mins by CD spectrum assay (reference value: 4.30%); design: scale not given: the % may be the effect or the level left
Mus musculus [25] = experiment: Anti-diabetic activity against 16 hrs fasted male Kunming mouse assessed as decrease in postprandial blood glucose at 20 mg/kg, IG after 30 mins […] of sucrose administered and measured upto 2 hrs by sucrose tolerance test; assay type: functional; details: po
[26] = target: T2, Alpha-glucosidase (Saccharomyces cerevisiae S288c); experiment: Binding affinity to Saccharomyces cerevisiae alpha-glucosidase assessed as decrease in protein stability by measuring random coil structure at 7.5 uM measured after 5 mins by CD spectrum assay (reference value: 6.20%); design: scale not given: the % may be the effect or the level left
CYP3A4 = experiment: Inhibition of CYP3A4 in rat liver microsomes assessed as remaining activity at 100 uM measured after 30 mins by LC-MS/MS analysis; assay type: ADME, Microsome; details: read-out: Activity
[27] = target: T2, Alpha-glucosidase (Saccharomyces cerevisiae S288c); experiment: Binding affinity to Saccharomyces cerevisiae alpha-glucosidase assessed as decrease in protein stability by measuring random coil structure at 10 uM measured after 5 mins by CD spectrum assay (reference value: 6.20%); design: scale not given: the % may be the effect or the level left
[28] = target: T2, Alpha-glucosidase (Saccharomyces cerevisiae S288c); experiment: Binding affinity to Saccharomyces cerevisiae alpha-glucosidase assessed as decrease in protein stability by measuring alpha-helix structure at 7.5 uM measured after 5 mins by CD spectrum assay (reference value: 84.50%); design: scale not given: the % may be the effect or the level left
[29] = target: T2, Alpha-glucosidase (Saccharomyces cerevisiae S288c); experiment: Binding affinity to Saccharomyces cerevisiae alpha-glucosidase assessed as decrease in protein stability by measuring random coil structure at 5 uM measured after 5 mins by CD spectrum assay (reference value: 6.20%); design: scale not given: the % may be the effect or the level left
[30] = target: T2, Alpha-glucosidase (Saccharomyces cerevisiae S288c); experiment: Binding affinity to Saccharomyces cerevisiae alpha-glucosidase assessed as decrease in protein stability by measuring beta-sheet structure at 15 uM measured after 5 mins by CD spectrum assay (reference value: 4.30%); design: scale not given: the % may be the effect or the level left
CYP2E1 = CYP2E1 (Rattus norvegicus, UniProt P05182); experiment: Inhibition of CYP2E1 in rat liver microsomes assessed as remaining activity at 100 uM measured after 30 mins by LC-MS/MS analysis; assay type: ADME, Microsome; details: read-out: Activity
Chain of CYP2E1 (P05182 whole entry): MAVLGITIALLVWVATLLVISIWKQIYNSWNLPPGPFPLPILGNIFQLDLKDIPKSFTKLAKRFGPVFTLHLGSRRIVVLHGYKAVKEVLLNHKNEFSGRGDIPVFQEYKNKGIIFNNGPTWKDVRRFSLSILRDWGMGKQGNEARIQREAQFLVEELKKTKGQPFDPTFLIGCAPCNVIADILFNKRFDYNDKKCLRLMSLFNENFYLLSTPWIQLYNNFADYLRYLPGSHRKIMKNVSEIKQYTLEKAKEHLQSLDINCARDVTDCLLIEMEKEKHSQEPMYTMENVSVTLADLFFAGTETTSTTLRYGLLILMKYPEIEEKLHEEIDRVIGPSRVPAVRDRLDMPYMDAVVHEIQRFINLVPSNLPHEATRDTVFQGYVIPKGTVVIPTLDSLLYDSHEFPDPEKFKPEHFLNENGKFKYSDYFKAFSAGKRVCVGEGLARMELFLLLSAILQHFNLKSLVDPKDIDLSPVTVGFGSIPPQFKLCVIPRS

Alpha-glucosidase [31] = target: T1, Alpha-glucosidase; experiment: Competitive inhibition of Saccharomyces cerevisiae alpha-glucosidase using nitrophenol-alpha-D-glucopyranoside (pNPG) as substrate at 24 to 48 uM measured after 15 mins by Lineweaver-Burk plot analysis; assay type: protein assay
[32] = target: T2, Alpha-glucosidase (Saccharomyces cerevisiae S288c); experiment: Binding affinity to Saccharomyces cerevisiae alpha-glucosidase assessed as quenching constant value (Ksv) by fluorescence quenching study; assay type: protein assay
[33] = target: T2, Alpha-glucosidase (Saccharomyces cerevisiae S288c); experiment: Binding affinity to Saccharomyces cerevisiae alpha-glucosidase assessed as decrease in protein stability by measuring beta-turn structure at 7.5 uM measured after 5 mins by CD spectrum assay (reference value: 6.80%); design: scale not given: the % may be the effect or the level left
[34] = target: T2, Alpha-glucosidase (Saccharomyces cerevisiae S288c); experiment: Binding affinity to Saccharomyces cerevisiae alpha-glucosidase assessed as decrease in protein stability by measuring beta-sheet structure at 20 uM measured after 5 mins by CD spectrum assay (reference value: 4.30%); design: scale not given: the % may be the effect or the level left
[35] = target: T2, Alpha-glucosidase (Saccharomyces cerevisiae S288c); experiment: Binding affinity to Saccharomyces cerevisiae alpha-glucosidase assessed as decrease in protein stability by measuring random coil structure at 15 uM measured after 5 mins by CD spectrum assay (reference value: 6.20%); design: scale not given: the % may be the effect or the level left

Fc1ccc(/C=N/Nc2nnc3n2N=C(c2ccccc2)CS3)cc1
IC50 (Alpha-glucosidase [1]): 50.24 µM

COc1cc(/C=N/Nc2nnc3n2N=C(c2ccccc2)CS3)cc(OC)c1O
Activity [2]: 11.2% | activity at 0.5 h, 100 µM (CYP2C9): 90.7% | IC50 (Alpha-glucosidase [1]): 31.23 µM | Activity [3]: 60.2% | Activity [4]: 5.8% | Ka [5]: 3.16 10^4L/mol | Activity [6]: 11.6% | Activity [7]: 31.9% | Ki (Alpha-glucosidase [8]): 87.56 µM | viability at 24 h, 50 µM [9]: 100% | Activity [10]: 37.4% | Activity [11]: 10.1% | AUC (Mus musculus [12]): 723 mM·min | Activity [13]: 62.7% | viability at 24 h, 150 µM [14]: 81.2% | activity at 0.5 h, 100 µM (CYP2D6): 92.3% | activity at 0.5 h, 100 µM (CYP2C19): 75.4% | Activity [15]: 57.3% | activity at 0.5 h, 100 µM (CYP1A2): 77.7% | Activity [16]: 21.2% | viability at 24 h, 200 µM [17]: 71.6% | activity at 0.5 h, 100 µM (CYP2B6): 98.7% | Activity [18]: 10.8% | Kq [19]: 1.57 10^13L/mol | Activity [20]: 87.7% | Activity [21]: 66.5% | Activity [22]: 6.3% | viability at 24 h, 100 µM [23]: 90.5% | Activity [24]: 6.1% | inhibition in vivo at 20 mg/kg (Mus musculus [25]): 24.4% | Activity [26]: 17.5% | activity at 0.5 h, 100 µM (CYP3A4): 96.5% | Activity [27]: 18.4% | Activity [28]: 63.4% | Activity [29]: 16% | Activity [30]: 6.6% | activity at 0.5 h, 100 µM (CYP2E1): 92.6% | Ki (Alpha-glucosidase [31]): 40.46 µM | KSV [32]: 1.57 10^5L/mol | Activity [33]: 10.6% | Activity [34]: 7% | Activity [35]: 19.7%
